Series [1] deals with T1, metal site of insulin R6 hexamers (Homo sapiens, UniProt P01308).
T1 construct: human insulin comprising additional amino acids, i.e. more than 51 amino acids
In words: TZD-assay: fluorescence based displacement assay. Type of series: binding. How it is done: The binding affinity of ligands to the metal site of insulin R6 hexamers are measured in a fluorescense based displacement assay. The fluorescence of 5-(4-dimethylaminobenzylidene)thiazolidine-2,4-dione (TZD) which is a ligand for the metal site of insulin R6 is quenched upon displacement from the metal site to the solution. Titration of a ligand to a stock solution of insulin R6 hexamers with this compound mounted in the metal site allows the binding affinity of these ligands to be determined measuring the fluorescence at 455 nm upon excitation at 410 nm.
Stock solution: 0.02 mM human insulin, 0.007 mM Zn-acetate, 40 mM phenol, 0.01 mM TZD in 50 mM tris buffer adjusted to pH=8.0 with NaOH/ClO4^−.
The ligand is dissolved in DMSO to a concentration of 5 mM and added in aliquots to the stock solution to final concentrations of 0-250 µM.
Fluorescence measurements were carried out on a Perkin Elmer Spectrofluorometer LS50B. T main absorption band was excited at 410 nm and emission was detected at 455 nm. The resolution was 10 nm and 2.5 nm for excitation and emission, respectively.
This equation is fitted to the datapoints ΔF(455 nm))=ΔFmax* [ligand]free/(KD(app)*(1+[TZD]/KTZD)+[ligand]free)) KD(app) is the apparent dissociation constant and Fmax is the fluorescence at maximal ligand concentration. The value of KTZD is measured separately to 230 nM
Two different fitting-procedures can be used. One in which both parameters, KD(app) and Fmax, are adjusted to best fit the data and a second in which the value of Fmax is fixed (Fmax=1) and only KD(app) is adjusted. The given data are from the second fitting procedure. The Solver module of Microsoft Excel can be used to generate the fits from the data points.

The nature of series [2]: Chemical stability of insulin formulations by RPC (reverse phase chromatography). Type of series: physicochemical. The following applies: formulated human insulin, 3 Zn2+ per hexamer. How it is done: (§1) The chemical stability of insulin formulations of the invention was characterised by HPLC (RPC, reverse phase chromatography and SEC, size exclusion chromatography). As reference, insulin formulated without ligands of the invention but with 0.3% DMSO was also investigated and shown below: [drawing]
FIG. 10. Reverse phase chromatography of formulated human insulin with 3 Zn^2+ per hexamer, 30 mM phenol, 150 mM mannitol, 3 mM phosphoric acid, sodium hydroxide to pH 7.4 and 0.3% DMSO corresponding to 3 ligands per hexamer at start (upper panel) and after storage for 2 weeks at 37° C. (lower panel): Preservatives before 20 min., “hydrophilic derivatives” (desamido-insulins) 20 min to main top insulin, “hydrophobic derivatives 1” main top to 64 min., and “hydrophobic derivatives 2” (insulin dimers) after 64 min.
(§2) Storage in HPLC 1 ml vials at 45° C. (5 d), 37° C. (2 w), 30° C. (6 w), 25° C. (10 w), 15° C. (30 w) gave about the same increase of transformation products correlating to an increase in reactions constants of a factor 3-4 per 10 degree.
RPC (reverse phase chromatography) on Waters SymmetryShield RP8 column, 150×4.6 mm and 3.5 μm, eluted by A: 0.2 M sodium sulfate+0.04 M sodium phosphate pH 7.2+10% acetonitrile and isocratically (i) or a gradient (g) of B: 70% acetonitrile [minutes/% B(i/g): 0/19, 21/24(i)(sudden change), 51/24(i), 81/39(g), 81.1/0(i), 82.3/19(i)] at flow of 0.9 mL/min and 30° C.

Series [3] can be described thus: Chemical stability of insulin formulations by SEC (size exclusion chromatography). The following applies: formulated human insulin, 3 Zn2+ per hexamer. In kind it is physicochemical. How it is done:
as §1, §2
SEC (size exclusion chromatography) on Waters insulin HMWP column, 300×7.8 mm, eluted by 15:20:65 of acetic acid: acetonitrile: arginine 1 g/L at flow of 1 mL/min and ambient temperature.

Setting [4] is: affinity towards the zinc site, TZD-assay, read-out: Kd(app).

Read-outs that look alike come from different tables or passages of the source.

The text below walks through data of patent US20050065066A1, “Stabilised insulin compositions” (priority 2002, published 2005).

T1 sequence (P01308 25-54 limits assumed): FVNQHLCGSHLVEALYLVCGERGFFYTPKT
T1 sequence (P01308 90-110 limits assumed): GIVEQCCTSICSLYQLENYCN

In the case of `c1ccc2[nH]nnc2c1` [Example 1], the Kd in series [1] (setting [4]) worked out at 3880 nM.
For the molecule `CCN(CC)c1ccc(/C=C2\SC(=O)NC2=O)cc1` [Example 70, 5-(4-Diethylaminobenzylidene)thiazolidine-2,4-dione], the “hphil (hydrophilic derivatives, desamido-insulins)” value is on record as “(0.54) % formed/year” in series [2] (5° predicted); 1.95 % formed/year in series [2] (15° C.); 6.08 % formed/year in series [2] (25° C.); 12.1 % formed/year in series [2] (30° C.); 23.7 % formed/year in series [2] (37° C.); 56.2 % formed/year in series [2] (45° C.). Also, the “hphob1 (hydrophobic derivatives 1)” value was “(0.22) % formed/year” in series [2] (5° predicted); 1.09 % formed/year in series [2] (15° C.); 4.99 % formed/year in series [2] (25° C.); 6.94 % formed/year in series [2] (30° C.); 14.8 % formed/year in series [2] (37° C.); 78.8 % formed/year in series [2] (45° C.). The “hphob2 (hydrophobic derivatives 2, insulin dimers)” value in series [2] (5° predicted) is “(0.064) % formed/year”; in series [2] (15° C.) it was 0.42 % formed/year; in series [2] (25° C.), 0.94 % formed/year; in series [2] (30° C.) it was 3.03 % formed/year; in series [2] (37° C.), 6.50 % formed/year; in series [2] (45° C.) it was 27.0 % formed/year. Further, the dimer result in series [3] (5° predicted) is “(0.15) % formed/year”; in series [3] (15° C.), 0.69 % formed/year; in series [3] (25° C.), 2.24 % formed/year; in series [3] (30° C.), 3.55 % formed/year; in series [3] (37° C.), 8.84 % formed/year; in series [3] (45° C.), 29.2 % formed/year.
`CCCCCOc1ccccc1/C=C1\SC(=O)NC1=O` [Example 76, 5-(2-Pentyloxybenzylidene)thiazolidine-2,4-dione]: in series [1] (setting [4]), the Kd was 82 nM.
`COc1cc(/C=C2\SC(=O)NC2=O)cc(I)c1O` [Example 167, 5-(4-Hydroxy-3-iodo-5-methoxybenzylidene)thiazolidine-2,4-dione]: the melting point was determined as 256 °C.
Same read-out and setting: for `O=C1NC(=O)/C(=C/c2ccc3cc(O)ccc3c2)S1` [Example 171, 5-(6-Hydroxy-2-naphthylmethylene)thiazolidine-2,4-dione] the value was 310 to 314 °C; for `O=C1NC(=O)C(=Cc2c[nH]c3ccc([N+](=O)[O-])cc23)S1` [Example 199, 5-(5-Nitro-1H-indol-3-ylmethylene)thiazolidine-2,4-dione], 330 to 333 °C; for `O=C1NC(=O)/C(=C/c2c(Cl)cccc2Cl)S1` [Example 229, 5-(2,6-Dichlorobenzylidene)thiazolidine-2,4-dione], 152 to 154 °C.
The same measure, in the same setting: for `COc1cc(O)cc(OC)c1/C=C1\SC(=O)NC1=O` [Example 234, 5-(4-Hydroxy-2,6-dimethoxybenzylidene)thiazolidine-2,4-dione] the value was 331 to 333 °C.
In turn, `Cc1cccc(C)c1/C=C1\SC(=O)NC1=O` [Example 235, 5-(2,6-Dimethylbenzylidene)thiazolidine-2,4-dione] displayed a melting point of 104 to 105 °C.
On to `COc1cccc(OC)c1/C=C1\SC(=O)NC1=O` [Example 236, 5-(2,6-Dimethoxybenzylidene)thiazolidine-2,4-dione], for which the melting point fell in the range of 241 to 242 °C.
On the same count and under the same terms, the figure for `COc1cc(OCc2c(F)cccc2[N+](=O)[O-])cc(OC)c1C=C1SC(=O)NC1=O` [Example 237, 5-[4-(2-Fluoro-6-nitrobenzyloxy)-2,6-dimethoxybenzylidene]thiazolidine-2,4-dione] is 255 to 256 °C; for `O=C1NC(=O)/C(=C/c2cc3ccccc3o2)S1` [Example 238, 5-Benzofuran-2-ylmethylenethiazolidine-2,4-dione] it is 265 to 266 °C.
Turning to `CN(C)c1ccc(/C=C/C=C2\SC(=O)NC2=O)cc1` [Example 239, 5-[3-(4-Dimethylaminophenyl)allylidene]thiazolidine-2,4-dione], the melting point was 259 to 263 °C.
On the same count and under the same terms, for `CC(/C=C1\SC(=O)NC1=O)=C\c1ccccc1` [Example 240, 5-(2-Methyl-3-phenylallylidene)thiazolidine-2,4-dione] the value was 203 to 210 °C.
Still for that read-out and setting: for `O=C1NC(=O)/C(=C/C(Cl)=C/c2ccccc2)S1` [Example 241, 5-(2-Chloro-3-phenylallylidene)thiazolidine-2,4-dione] the value was 251 to 254 °C; for `O=C1NC(=O)/C(=C/c2cc3ccccc3[nH]c2=O)S1` [Example 242, 5-(2-Oxo-1,2-dihydroquinolin-3-ylmethylene)thiazolidine-2,4-dione], 338 to 347 °C.
On to `O=C(O)COc1cccc(/C=C2\SC(=O)NC2=O)c1` [Example 461, [3-(2,4-Dioxothiazolidin-5-ylidenemethyl)phenoxy]acetic acid], for which the “hphil (hydrophilic derivatives, desamido-insulins)” value is given as “(0.287) % formed/year” in series [2] (5° predicted); 1.14 % formed/year in series [2] (15° C.); 2.86 % formed/year in series [2] (25° C.); 5.12 % formed/year in series [2] (30° C.); 11.2 % formed/year in series [2] (37° C.); 29.9 % formed/year in series [2] (45° C.). Moreover, the “hphob1 (hydrophobic derivatives 1)” value is reported as “(0.153) % formed/year” in series [2] (5° predicted); 0.67 % formed/year in series [2] (15° C.); 4.78 % formed/year in series [2] (25° C.); 7.11 % formed/year in series [2] (30° C.); 20.0 % formed/year in series [2] (37° C.); 52.6 % formed/year in series [2] (45° C.). The “hphob2 (hydrophobic derivatives 2, insulin dimers)” value in series [2] (5° predicted) is listed as “(0.044) % formed/year”; in series [2] (15° C.), 0.29 % formed/year; in series [2] (25° C.), 0.99 % formed/year; in series [2] (30° C.) it was 1.99 % formed/year; in series [2] (37° C.), 7.02 % formed/year; in series [2] (45° C.), 23.4 % formed/year. For the same molecule, the dimer entry is “(0.057) % formed/year” in series [3] (5° predicted); 0.33 % formed/year in series [3] (15° C.); 1.20 % formed/year in series [3] (25° C.); 2.34 % formed/year in series [3] (30° C.); 6.50 % formed/year in series [3] (37° C.); 23.4 % formed/year in series [3] (45° C.).
As for `O=C(O)COc1ccc(/C=C2\SC(=O)NC2=O)c2ccccc12` [Example 476, [4-(2,4-Dioxothiazolidin-5-ylidenemethyl)naphthalen-1-yloxy]acetic acid], in series [1] (setting [4]), the Kd is 68 nM.
The molecule `c1cc(COc2ccc3ccccc3c2)cc(-c2nnn[nH]2)c1` [Example 572, 5-(3-(Naphthalen-2-yloxymethyl)-phenyl)-1H-tetrazole] registered a melting point of 200 to 202 °C.
As for `Fc1ccc(Cn2c3ccccc3c3cc(-c4nn[nH]n4)ccc32)c(F)c1` [Example 759, 9-(2,4-Difluorobenzyl)-3-(2H-tetrazol-5-yl)-9H-carbazole], the Kd in series [1] (setting [4]) was determined as 23 nM.
For `CN(C)c1ccc(/C=C2\SC(=O)NC2=O)cc1` [TZD, 5-(4-dimethylaminobenzylidene)thiazolidine-2,4-dione, reference compound], in series [1] (measured separately, read-out: KTZD), the Kd worked out at 230 nM.

A word on the melting point: it is the temperature of the solid-liquid transition.
